Measured values published in ChEMBL document CHEMBL3734677, “EVALUATION OF AROMATIC 6-SUBSTITUTED THIENOPYRIMIDINES AS SCAFFOLDS AGAINST PARASITES THAT CAUSE TRYPANOSOMIASIS, LEISHMANIASIS, AND MALARIA” (Medchemcomm, 2015).

Columns and labels:
Leishmania major [1] = experiment: Antiparasitic activity against Leishmania major promastigotes; type: functional, organism-based
Plasmodium falciparum = experiment: Antiparasitic activity against Plasmodium falciparum D6; type: functional, organism-based
HepG2 = experiment: Cytotoxicity against human HepG2 cells by MTT assay; type: cell-based; conditions: hepg2
Leishmania major [2] = experiment: Antiparasitic activity against Leishmania major amastigotes; type: functional, organism-based
Trypanosoma brucei [3] = experiment: Antiparasitic activity against Trypanosoma brucei after 48 hrs by cytometry; type: functional, organism-based
Trypanosoma cruzi [4] = experiment: Antiparasitic activity against Trypanosoma cruzi; type: functional, organism-based
Trypanosoma brucei [5] = experiment: Antiparasitic activity against Trypanosoma brucei at 5 uM after 48 hrs by cytometry; type: functional
Trypanosoma cruzi [6] = experiment: Antiparasitic activity against Trypanosoma cruzi at 10 uM; type: functional
[7] = Selectivity ratio, ratio of EC50 for Plasmodium falciparum C235 to EC50 for Plasmodium falciparum D6; type: functional
[8] = Selectivity ratio, ratio of EC50 for Plasmodium falciparum W2 to EC50 for Plasmodium falciparum D6; type: functional
[9] = Leishmania major, read-out: EC50
[10] = Plasmodium falciparum, D6, read-out: EC50

CC(C)(C)NS(=O)(=O)c1ccccc1-c1ccc2ncnc(Nc3ccc(OCc4cccc(F)c4)c(Cl)c3)c2c1
EC50 (Leishmania major [1]): ND(Insoluble) | EC50 (Plasmodium falciparum): ND(Insoluble) | Activity (HepG2): Non-toxic | EC50 (Leishmania major [2]): ND(Insoluble) | EC50 (Trypanosoma brucei [3]): 4700 nM | EC50 (Trypanosoma cruzi [4]): 6400 nM

Fc1cccc(COc2ccc(Nc3ncnc4cc(-c5ccccc5Oc5ccccc5)sc34)cc2Cl)c1
EC50 (Leishmania major [1]; [9]): > 20000 nM | inhibition at 5 µM (Trypanosoma brucei [5]): 10% | EC50 (Plasmodium falciparum; [10]): 6210 nM | Activity (HepG2): Non-toxic | EC50 (Leishmania major [2]; [9]): 3500 nM | EC50 (Trypanosoma cruzi [4]): > 50000 nM

CC(C)(C)NS(=O)(=O)c1ccccc1-c1cc2c(Nc3ccc(OCc4cccc(F)c4)c(Cl)c3)ncnc2s1
EC50 (Leishmania major [1]; [9]): > 20000 nM | EC50 (Plasmodium falciparum; [10]): > 15000 nM | Activity (HepG2): Non-toxic | EC50 (Leishmania major [2]; [9]): > 15000 nM | EC50 (Trypanosoma brucei [3]): 500 nM | EC50 (Trypanosoma cruzi [4]): > 50000 nM

CC(C)(C)OCc1ccc(-c2cc3c(Nc4ccc(OCc5cccc(F)c5)c(Cl)c4)ncnc3s2)cc1
inhibition at 10 µM (Trypanosoma cruzi [6]): 17% | EC50 (Leishmania major [1]; [9]): > 20000 nM | EC50 (Plasmodium falciparum; [10]): 7790 nM | Activity (HepG2): Non-toxic | EC50 (Leishmania major [2]; [9]): 2030 nM | EC50 (Trypanosoma brucei [3]): 1600 nM

Fc1cccc(COc2ccc(Nc3ncnc4ccc(-c5cc6ccccc6s5)cc34)cc2Cl)c1
EC50 (Leishmania major [1]; [9]): > 20000 nM | EC50 (Plasmodium falciparum; [10]): 910 nM | Activity (HepG2): Non-toxic | EC50 (Leishmania major [2]; [9]): > 15000 nM | EC50 (Trypanosoma brucei [3]): 6000 nM | EC50 (Trypanosoma cruzi [4]): > 50000 nM

Fc1cccc(COc2ccc(Nc3ncnc4ccccc34)cc2Cl)c1
EC50 (Leishmania major [1]; [9]): 1750 nM | EC50 (Plasmodium falciparum; [10]): 5330 nM | Activity (HepG2): Non-toxic | EC50 (Leishmania major [2]; [9]): 12400 nM | EC50 (Trypanosoma brucei [3]): 1300 nM | EC50 (Trypanosoma cruzi [4]): 2400 nM

CC(C)(C)OCc1ccc(-c2ccc3ncnc(Nc4ccc(OCc5cccc(F)c5)c(Cl)c4)c3c2)cc1
EC50 (Leishmania major [1]; [9]): > 20000 nM | EC50 (Plasmodium falciparum; [10]): 600 nM | Activity (HepG2): Non-toxic | EC50 (Leishmania major [2]; [9]): 4090 nM | EC50 (Trypanosoma brucei [3]): 220 nM | EC50 (Trypanosoma cruzi [4]): 2200 nM

CC(C)(C)OCc1ccc(-c2cc3ncnc(Nc4ccc(OCc5cccc(F)c5)c(Cl)c4)c3s2)cc1
EC50 (Leishmania major [1]; [9]): > 20000 nM | EC50 (Plasmodium falciparum; [10]): 1650 nM | Activity (HepG2): Non-toxic | EC50 (Leishmania major [2]; [9]): > 15000 nM | EC50 (Trypanosoma brucei [3]): 890 nM | EC50 (Trypanosoma cruzi [4]): 30000 nM

Fc1cccc(COc2ccc(Nc3ncnc4sc(-c5cccc(N6CCOCC6)c5)cc34)cc2Cl)c1
EC50 (Leishmania major [1]; [9]): > 20000 nM | EC50 (Plasmodium falciparum; [10]): 520 nM | Activity (HepG2): Non-toxic | EC50 (Leishmania major [2]; [9]): 2600 nM | EC50 (Trypanosoma brucei [3]): 400 nM | EC50 (Trypanosoma cruzi [4]): 2200 nM

Fc1cccc(COc2ccc(Nc3ncnc4ccsc34)cc2Cl)c1
EC50 (Leishmania major [1]; [9]): 5680 nM | inhibition at 5 µM (Trypanosoma brucei [5]): 1% | EC50 (Plasmodium falciparum; [10]): 16400 nM | Activity (HepG2): Non-toxic | EC50 (Leishmania major [2]; [9]): > 15000 nM | EC50 (Trypanosoma cruzi [4]): 27000 nM

Cc1cc(-c2cc3c(Nc4ccc(OCc5cccc(F)c5)c(Cl)c4)ncnc3s2)cnc1N1CCOCC1
inhibition at 10 µM (Trypanosoma cruzi [6]): 29% | EC50 (Leishmania major [1]; [9]): > 3000 nM | EC50 (Plasmodium falciparum; [10]): 280 nM | Activity (HepG2): Non-toxic | Ratio EC50 [7]: < 3 | EC50 (Leishmania major [2]; [9]): > 3000 nM | EC50 (Trypanosoma brucei [3]): 420 nM | Ratio EC50 [8]: < 3

CS(=O)(=O)c1cccc(-c2cc3c(Nc4ccc(OCc5cccc(F)c5)c(Cl)c4)ncnc3s2)c1
EC50 (Leishmania major [1]; [9]): 11800 nM | EC50 (Plasmodium falciparum; [10]): 520 nM | Activity (HepG2): Non-toxic | Ratio EC50 [7]: < 3 | EC50 (Leishmania major [2]; [9]): > 15000 nM | EC50 (Trypanosoma brucei [3]): 1300 nM | EC50 (Trypanosoma cruzi [4]): 2400 nM | Ratio EC50 [8]: < 3

O=C(c1cccc(-c2cc3ncnc(Nc4ccc(OCc5cccc(F)c5)c(Cl)c4)c3s2)c1)N1CCCCC1
EC50 (Leishmania major [1]; [9]): > 20000 nM | inhibition at 5 µM (Trypanosoma brucei [5]): 46% | EC50 (Plasmodium falciparum; [10]): 1170 nM | Activity (HepG2): Non-toxic | EC50 (Leishmania major [2]; [9]): 3100 nM | EC50 (Trypanosoma cruzi [4]): 3200 nM

CS(=O)(=O)c1cccc(-c2ccc3ncnc(Nc4ccc(OCc5cccc(F)c5)c(Cl)c4)c3c2)c1
EC50 (Leishmania major [1]; [9]): 3490 nM | EC50 (Plasmodium falciparum; [10]): 520 nM | Activity (HepG2): Non-toxic | Ratio EC50 [7]: < 3 | EC50 (Leishmania major [2]; [9]): 4670 nM | EC50 (Trypanosoma brucei [3]): 3200 nM | EC50 (Trypanosoma cruzi [4]): 5000 nM | Ratio EC50 [8]: < 3

Oc1ccc(-c2cc3ncnc(Nc4ccc(OCc5cccc(F)c5)c(Cl)c4)c3s2)cc1
EC50 (Leishmania major [1]; [9]): > 20000 nM | EC50 (Plasmodium falciparum; [10]): 440 nM | Activity (HepG2): Non-toxic | EC50 (Leishmania major [2]; [9]): 1580 nM | EC50 (Trypanosoma brucei [3]): 2200 nM | EC50 (Trypanosoma cruzi [4]): 750 nM

Cc1cc(-c2ccc3ncnc(Nc4ccc(OCc5cccc(F)c5)c(Cl)c4)c3c2)cnc1N1CCOCC1
inhibition at 10 µM (Trypanosoma cruzi [6]): 49% | EC50 (Leishmania major [1]; [9]): > 20000 nM | EC50 (Plasmodium falciparum; [10]): 260 nM | Activity (HepG2): Non-toxic | Ratio EC50 [7]: < 3 | EC50 (Leishmania major [2]; [9]): 1140 nM | EC50 (Trypanosoma brucei [3]): 1000 nM | Ratio EC50 [8]: < 3

Oc1ccc(-c2ccc3ncnc(Nc4ccc(OCc5cccc(F)c5)c(Cl)c4)c3c2)cc1
EC50 (Leishmania major [1]; [9]): > 20000 nM | EC50 (Plasmodium falciparum; [10]): > 20000 nM | Activity (HepG2): Non-toxic | EC50 (Leishmania major [2]; [9]): > 15000 nM | EC50 (Trypanosoma brucei [3]): 6500 nM | EC50 (Trypanosoma cruzi [4]): > 50000 nM

CS(=O)(=O)c1cccc(-c2cc3ncnc(Nc4ccc(OCc5cccc(F)c5)c(Cl)c4)c3s2)c1
EC50 (Leishmania major [1]; [9]): > 3000 nM | EC50 (Plasmodium falciparum; [10]): 650 nM | Activity (HepG2): Non-toxic | Ratio EC50 [7]: < 3 | EC50 (Leishmania major [2]; [9]): > 3000 nM | EC50 (Trypanosoma brucei [3]): 1400 nM | EC50 (Trypanosoma cruzi [4]): 2700 nM | Ratio EC50 [8]: < 3

O=C(c1cccc(-c2cc3c(Nc4ccc(OCc5cccc(F)c5)c(Cl)c4)ncnc3s2)c1)N1CCCCC1
EC50 (Leishmania major [1]; [9]): > 20000 nM | EC50 (Plasmodium falciparum; [10]): 2110 nM | Activity (HepG2): Non-toxic | EC50 (Leishmania major [2]; [9]): > 15000 nM | EC50 (Trypanosoma brucei [3]): 330 nM | EC50 (Trypanosoma cruzi [4]): > 50000 nM

Fc1cccc(COc2ccc(Nc3ncnc4ccc(-c5ccccc5Oc5ccccc5)cc34)cc2Cl)c1
EC50 (Leishmania major [1]; [9]): 6860 nM | EC50 (Plasmodium falciparum; [10]): 5790 nM | Activity (HepG2): Non-toxic | EC50 (Leishmania major [2]; [9]): > 15000 nM

Fc1cccc(COc2ccc(Nc3ncnc4cc(-c5cccc(N6CCOCC6)c5)sc34)cc2Cl)c1
EC50 (Leishmania major [1]; [9]): > 20000 nM | inhibition at 5 µM (Trypanosoma brucei [5]): 42% | EC50 (Plasmodium falciparum; [10]): 860 nM | Activity (HepG2): Non-toxic | EC50 (Leishmania major [2]; [9]): 5400 nM | EC50 (Trypanosoma cruzi [4]): > 50000 nM

Fc1cccc(COc2ccc(Nc3ncnc4cc(-c5ccccc5)sc34)cc2Cl)c1
inhibition at 10 µM (Trypanosoma cruzi [6]): 0% | EC50 (Leishmania major [1]; [9]): 8140 nM | EC50 (Plasmodium falciparum; [10]): 2970 nM | Activity (HepG2): Non-toxic | EC50 (Leishmania major [2]; [9]): > 15000 nM | EC50 (Trypanosoma brucei [3]): 2800 nM

O=C(c1cccc(-c2ccc3ncnc(Nc4ccc(OCc5cccc(F)c5)c(Cl)c4)c3c2)c1)N1CCCCC1
EC50 (Leishmania major [1]; [9]): > 3000 nM | EC50 (Plasmodium falciparum; [10]): 510 nM | Activity (HepG2): Non-toxic | EC50 (Leishmania major [2]; [9]): > 15000 nM | EC50 (Trypanosoma cruzi [4]): > 50000 nM

Fc1cccc(COc2ccc(Nc3ncnc4sc(-c5ccccc5Oc5ccccc5)cc34)cc2Cl)c1
inhibition at 10 µM (Trypanosoma cruzi [6]): 45% | EC50 (Leishmania major [1]; [9]): > 20000 nM | EC50 (Plasmodium falciparum; [10]): 10800 nM | Activity (HepG2): Non-toxic | EC50 (Leishmania major [2]; [9]): > 15000 nM | EC50 (Trypanosoma brucei [3]): 1200 nM

Fc1cccc(COc2ccc(Nc3ncnc4cc(-c5ccc(N6CCOCC6)cc5)sc34)cc2Cl)c1
inhibition at 10 µM (Trypanosoma cruzi [6]): 0% | EC50 (Leishmania major [1]; [9]): > 20000 nM | EC50 (Plasmodium falciparum; [10]): 3100 nM | Activity (HepG2): Non-toxic | EC50 (Leishmania major [2]; [9]): > 15000 nM | EC50 (Trypanosoma brucei [3]): 470 nM

Fc1cccc(COc2ccc(Nc3ncnc4cc(-c5ccc(CN6CCOCC6)cc5)sc34)cc2Cl)c1
EC50 (Leishmania major [1]; [9]): 220 nM | EC50 (Plasmodium falciparum; [10]): 27 nM | Activity (HepG2): Non-toxic | Ratio EC50 [7]: < 3 | EC50 (Leishmania major [2]; [9]): > 15000 nM | EC50 (Trypanosoma brucei [3]): 1100 nM | EC50 (Trypanosoma cruzi [4]): > 50000 nM

Fc1cccc(COc2ccc(Nc3ncnc4sc(-c5cc6ccccc6s5)cc34)cc2Cl)c1
inhibition at 10 µM (Trypanosoma cruzi [6]): 49% | EC50 (Leishmania major [1]; [9]): > 3000 nM | EC50 (Plasmodium falciparum; [10]): > 4000 nM | Activity (HepG2): Non-toxic | EC50 (Leishmania major [2]; [9]): > 3000 nM | EC50 (Trypanosoma brucei [3]): 2900 nM

CC(C)(C)NS(=O)(=O)c1ccccc1-c1cc2ncnc(Nc3ccc(OCc4cccc(F)c4)c(Cl)c3)c2s1
EC50 (Leishmania major [1]; [9]): > 20000 nM | EC50 (Plasmodium falciparum; [10]): 1070 nM | Activity (HepG2): Non-toxic | EC50 (Leishmania major [2]; [9]): 2370 nM | EC50 (Trypanosoma brucei [3]): 1200 nM | EC50 (Trypanosoma cruzi [4]): 670 nM
